Here are results for 16 compounds from patent US10322995B2, “Substituted cyano cycloalkyl penta-2,4-dienes, cyano cycloalkyl pent-2-en-4-ynes, cyano heterocyclyl penta-2,4-dienes and cyano heterocyclyl pent-2-en-4-ynes as active substances against abiotic plant stress” (BAYER CROPSCIENCE AKTIENGESELLSCHAFT, priority 2014, dated 2019).

Bounds are passed on as bounds.

The target of assay [1] is T1, phosphatase ABI1 via the co-regulator RCAR11/PYR1 (Arabidopsis thaliana, UniProt O49686+P49597).
T1 sequence (O49686 1-191): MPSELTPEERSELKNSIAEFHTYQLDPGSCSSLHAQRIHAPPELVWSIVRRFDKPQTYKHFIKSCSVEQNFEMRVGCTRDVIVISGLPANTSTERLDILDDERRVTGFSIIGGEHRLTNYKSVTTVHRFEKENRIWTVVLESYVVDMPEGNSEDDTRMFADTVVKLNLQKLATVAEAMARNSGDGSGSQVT
T1 sequence (P49597 1-434): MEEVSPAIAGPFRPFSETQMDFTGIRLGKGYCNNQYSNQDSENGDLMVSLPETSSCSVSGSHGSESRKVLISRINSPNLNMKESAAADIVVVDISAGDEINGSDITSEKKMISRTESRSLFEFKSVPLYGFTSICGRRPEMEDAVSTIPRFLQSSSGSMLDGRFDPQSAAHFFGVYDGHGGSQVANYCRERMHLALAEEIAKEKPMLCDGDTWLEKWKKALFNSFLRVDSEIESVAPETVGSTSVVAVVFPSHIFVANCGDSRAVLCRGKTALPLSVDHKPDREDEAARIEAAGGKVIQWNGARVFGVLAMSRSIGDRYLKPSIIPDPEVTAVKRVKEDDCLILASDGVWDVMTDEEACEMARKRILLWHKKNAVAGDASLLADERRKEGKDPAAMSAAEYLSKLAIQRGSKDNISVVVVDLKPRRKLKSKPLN
The assay can be described thus: In vitro assay: inhibition of the phosphatase ABI1 via the co-regulator RCAR11/PYR1, MUP dephosphorylation, fluorescence. The class given is biochemical. Details: inhibition: dose or concentration left out as unconfirmed. The following applies: MUP dephosphorylation, fluorescence 460 nm; for inhibition: read-out: ABI1 inhibition; for ABI1 inhibition: concentration of 5 mM of the substance in a solution of DMSO and water. The source says:
Effects of the phytohormone abscisic acid (ABA) on the behaviour of plants under abiotic stress and the mechanism of action of ABA are described in the literature (cf. Abrams et al, WO97/23441, Cutler, Park et al. Science, 2009, 324, 1068; Grill et al. Science, 2009, 324, 1064; Tanokura et al. Biophysics, 2011, 7, 123; Schroeder et al. Plant J. 2010, 61, 290). Therefore, it is possible with the aid of a suitable in vitro test system to derive a correlation between the action of ABA and the stress response of a plant under abiotic stress. Under drought stress, plants form the phytohormone abscisic acid (ABA). This binds, along with a co-regulator (Regulatory Component of ABA-Receptor=RCAR according to Grill et al. Science, 2009, 324, 1064 or PYR/PYL according to Cutler et al. Science, 2009, 324, 1068), to a phosphatase (e.g. ABI1, a type 2C protein phosphatase, also abbreviated to PP2C) and inhibits its activity. As a result, a “downstream” kinase (e.g. SnRK2) is no longer dephosphorylated. This kinase, which is thus active, via phosphorylation of transcription factors (e.g. AREB/ABF, vgl. Yoshida et al., Plant J. 2010, 61, 672), switches on a genetic protection programme to increase drought stress tolerance.
The assay described hereinafter utilizes the inhibition of the phosphatase ABI1 via the co-regulator RCAR11/PYR1 aus Arabidopsis thaliana.
For the determination of activity, the dephosphorylation of 4-methylumbelliferyl phosphate (MUP) was measured at 460 nm. The in vitro assay was conducted in Greiner 384-well PS microplates F-well, using two controls: a) dimethyl sulphoxide (DMSO) 0.5% (f.c.) and b) 5 μM (f.c.) abscisic acid (ABA). […] The substance solution thus obtained, if necessary, was stirred with esterase from porcine liver (EC 3.1.1.1) at room temperature for 3 h and centrifuged at 4000 rpm for 30 min. A total volume of 45 μl was introduced into each cavity of the microplate, having the following composition: • 1) 5 μl of substance solution, i.e. a) DMSO 5% or b) abscisic acid solution or c) the corresponding example compound of the general formula (I) dissolved in 5% DMSO. • 2) 20 μl of enzyme buffer mix, composed of a) 40% by vol. of enzyme buffer (10 ml contain equal proportions by volume of 500 mM Tris-HCl pH8, 500 mM NaCl, 3.33 mM MnCl2, 40 mM dithiothreitol (DTT)), b) 4% by vol. of ABI1 dilution (protein stock solution was diluted so as to give, after addition, a final concentration in the assay of 0.15 μg ABI1/well), c) 4% by vol. of RCAR11 dilution (enzyme stock was diluted so as to give, on addition of the dilution to the enzyme buffer mix, a final concentration in the assay of 0.30 μg enzyme/well), d) 5% by vol. of Tween20 (1%), e) 47% by vol. H2O bi-dist. • 3) 20 μl of substrate mix, composed of a) 10% by vol. of 500 mM Tris-HCl pH8, b) 10% by vol. of 500 mM NaCl, c) 10% by vol. of 3.33 mM MnCl2, d) 5% by vol. of 25 mM MUP, 5% by vol. of Tween20 (1%), 60% by vol. of H2O bi-dist.
Enzyme buffer mix and substrate mix were made up 5 minutes prior to the addition and warmed to a temperature of 35° C. On completion of pipetting of all the solutions and on completion of mixing, the plate was incubated at 35° C. for 20 minutes. Finally, a relative fluorescence measurement was made at 35° C. with a BMG Labtech “POLARstar Optima” microplate reader using a 340/10 nm excitation filter and a 460 nm emission filter. The efficacy of the compounds of the general formula (I) is reported in the table which follows using abscisic acid (No. 64) as comparative substance according to the following classification: ++++ (inhibition≥90%), +++ (90%>inhibition≥70%), ++ (70%>inhibition≥50%), +(50%>inhibition≥30%).
Effects of selected compounds of the general formula (I) in the above-described in vitro assay at a concentration of 5 mM of the substance of the general formula (I) in question in a solution of DMSO and water: […]

Assay [2] has as its system Brassica napus (BRSNS). Put plainly: In vivo analyses Part B: drought stress, appearance vs stressed control plants in categories (BRSNS). Details: key: 0: no positive effect; 10: slight positive effect; 20: clear positive effect; 30: strong positive effect. The following applies: category vs stressed control plants, 2-3 pots. As for the experimental part:
Seeds of monocotyledonous and dicotyledonous crop plants were sown in sandy loam in plastic pots, covered with soil or sand and cultivated in a greenhouse under good growth conditions. The test plants were treated at the early leaf stage (BBCH10-BBCH13). To assure uniform water supply before commencement of stress, the potted plants were supplied with water by dam irrigation prior to substance application. The inventive compounds, formulated in the form of wettable powders (WP), were sprayed onto the green parts of the plants as an aqueous suspension at an equivalent water application rate of 600 I/ha with addition of 0.2% wetting agent (e.g. agrotin). Substance application was followed immediately by stress treatment of the plants. Drought stress was induced by gradual drying out under the following conditions: “Day”: 14 hours with illumination at 26-30° C. “Night”: 10 hours without illumination at 18-20° C. The duration of the respective stress phases was guided mainly by the condition of the stressed control plants. It was ended (by re-irrigating and transfer to a greenhouse with good growth conditions) as soon as irreversible damage was observed on the stressed control plants. The end of the stress phase was followed by an about 4-7-day recovery phase, during which the plants were once again kept under good growth conditions in a greenhouse. The duration of the recovery phase was guided mainly by when the trial plants had attained a state which enabled visual scoring of potential effects, and was therefore variable. Once this juncture had been reached, the appearance of the plants treated with test substances was recorded in comparison to the stressed control plants by the following categories: [table] In order to rule out any influence on the effects observed by any fungicidal or insecticidal action of the test compounds, it was additionally ensured that the tests proceeded without fungal infection or insect infestation. For each substance and dosage, 2-3 pots were treated and evaluated. BRSNS=Brassica napus

The test system of assay [3] is Triticum aestivum (TRZAS). The assay can be described thus: In vivo analyses Part C: drought stress, appearance vs stressed control plants in categories (TRZAS). The settings on record: appearance vs stressed control plants after recovery phase, efficacy range of 3-4 pots. Details: key: 0: no positive effect; 10: slight positive effect; 20: clear positive effect; 30: strong positive effect. As for the experimental part: Seeds of monocotyledonous and dicotyledonous crop plants were sown in sandy loam in plastic or wood-fibre pots, covered with soil or sand and cultivated in a greenhouse under good growth conditions. The test plants were treated at the early leaf stage (BBCH10-BBCH13). To assure uniform water supply before commencement of stress, the potted plants were supplied with water by dam irrigation prior to substance application. The inventive compounds were first formulated as wettable powders (WP) or dissolved in a solvent mixture. The further dilution was effected with water supplemented with 0.2% wetting agent (e.g. agrotin). The finished spray liquor was sprayed onto the green parts of the plant at an equivalent water application rate of 600 I/ha. Substance application was followed immediately by stress treatment of the plants. For this purpose, the wood-fibre pots were transferred in plastic inserts in order to prevent them from subsequently drying out too quickly. Drought stress was induced by gradual drying out under the following conditions: “Day”: 14 hours with illumination at 26-30° C. “Night”: 10 hours without illumination at 18-20° C. The duration of the respective stress phases was guided mainly by the condition of the stressed control plants. It was ended (by re-irrigating and transfer to a greenhouse with good growth conditions) as soon as irreversible damage was observed on the stressed control plants. The end of the stress phase was followed by an about 4-7-day recovery phase, during which the plants were once again kept under good growth conditions in a greenhouse. The duration of the recovery phase was guided mainly by when the trial plants had attained a state which enabled visual scoring of potential effects, and was therefore variable. Once this juncture had been reached, the appearance of the plants treated with test substances was recorded in comparison to the stressed control plants by the following categories: [table] For each substance and dosage, 3-4 pots were treated and evaluated. TRZAS=Triticum aestivum

For `COC(=O)/C=C(\C=C\C(O)(C(C)C)C1(C#N)CC1)C(F)(F)F` (centres unmarked) [I.2-120, Methyl (2E,4E)-6-(1-cyanocyclopropyl)-6-hydroxy-7-methyl-3-(trifluoro-methyl)octa-2,4-dienoate], the inhibition (in general, the relative decrease from the control value, in per cent) in assay [1] was over 90%. In assay [2] (spray application 250 g/ha), the “Effect (BRSNS)” value worked out at 30.
Take `CCOC(=O)C=C(C=CC(O)(C(C)C)C1(C#N)CC1)CC` (racemic) [I.2-103]: the “Effect (TRZAS)” value in assay [3] (dosage 250 g/ha) worked out at 30.
For the compound `CCOC(=O)/C=C(\C#CC(O)(c1ccc(F)cc1)C1(C#N)CC1)CC` (centres unmarked) [I.1-503, Ethyl (2Z)-6-(1-cyanocyclopropyl)-3-ethyl-6-(4-fluorophenyl)-6-hydroxyhex-2-en-4-ynoate], in assay [1], the inhibition was over 90%. In addition, the “Effect (BRSNS)” value in assay [2] (spray application 25 g/ha) is 20-30.
Consider `CCOC(=O)C=C(C#CC(O)(C1(C#N)CC1)C12CC3CC(CC(C3)C1)C2)C(F)(F)F` (racemic) [I.1-753], for which, in assay [3] (dosage 25 g/ha), the “Effect (TRZAS)” value is 10.
Consider `CCOC(=O)C=C(C)C#CC(O)(C(CC)CC)C1(C#N)CC1` (racemic) [I.1-732], for which, in assay [1], the ABI1 inhibition entry is reported as “++++ (inhibition≥90%)”. Further, in assay [3] (dosage 25 g/ha), the “Effect (TRZAS)” value turned out to be 10.
With `COC(=O)C=C(C#CC(O)(C1(C#N)CC1)C12CC3CC(CC(C3)C1)C2)C(F)(F)F` (racemic) [I.1-752], the “Effect (TRZAS)” value in assay [3] (dosage 25 g/ha) is 10.
For `CCOC(=O)C=C(C)C#CC(O)(C1(C#N)CC1)C12CC3CC(CC(C3)C1)C2` (racemic) [I.1-762], the “Effect (TRZAS)” value in assay [3] (dosage 250 g/ha) turned out to be 10.
For `COC(=O)/C=C(\C#CC(O)(C(C)C)C1(C#N)CC1)C(F)(F)F` (centres unmarked) [I.1-120], the ABI1 inhibition result in assay [1] is “+++ (90%>inhibition≥70%)”. The “Effect (BRSNS)” value in assay [2] (spray application 250 g/ha) is given as 20.
Consider `CC/C(C#CC(O)(C(C)C)C1(C#N)CC1)=C/C(=O)OCCOC` (centres unmarked) [I.1-606, 2-Methoxyethyl (2Z)-6-(1-cyanocyclopropyl)-3-ethyl-6-hydroxy-7-methyloct-2-en-4-ynoate], for which the inhibition in assay [1] was over 90%. The “Effect (BRSNS)” value in assay [2] (spray application 250 g/ha) was 20.
For `CC/C(C#CC(O)(c1ccc(F)cc1)C1(C#N)CC1)=C/C(=O)OC` (centres unmarked) [I.1-502], the ABI1 inhibition entry in assay [1] is recorded as “++++ (inhibition≥90%)”. Further, the “Effect (BRSNS)” value in assay [2] (spray application 250 g/ha) is recorded as 20-30.
The matching figures for `CC/C(C#CC(O)(c1ccc(F)cc1)C1(C#N)CC1)=C/C(=O)OCCOC` (centres unmarked) [I.1-614]: “++++ (inhibition≥90%)” and 10-20.
The matching figures for `CC/C(C#CC(O)(C(C)C)C1(C#N)CC1)=C/C(=O)OC` (centres unmarked) [I.1-102]: “++++ (inhibition≥90%)” and 30.
Consider `CCOC(=O)/C=C(/C)C#CC(O)(C1CCCCC1)C1(C#N)CC1` (centres unmarked) [I.1-702], for which the ABI1 inhibition entry in assay [1] is recorded as “++++ (inhibition≥90%)”. In addition, the “Effect (TRZAS)” value in assay [3] (dosage 250 g/ha) was found to be 10.
For `COC(=O)/C=C(\C#CC(O)(C1CCC1)C1(C#N)CC1)C(F)(F)F` (centres unmarked) [I.1-662], in assay [1], the ABI1 inhibition entry is on record as “++++ (inhibition≥90%)”. For the same compound, the “Effect (TRZAS)” value in assay [3] (dosage 25 g/ha) is listed as 10-20.
With `CCC(C#CC(O)(C1(C#N)CC1)C12CC3CC(CC(C3)C1)C2)=CC(=O)OC` (racemic) [I.1-738], the “Effect (TRZAS)” value in assay [3] (dosage 25 g/ha) was 10.
Same read-out and setting: to `CC/C(C#CC(O)(C(C)C)C1(C#N)CC1)=C/C(=O)NC1CC1` (centres unmarked) [I.1-157, (2Z)-6-(1-Cyanocyclopropyl)-N-cyclopropyl-3-ethyl-6-hydroxy-7-methyloct-2-en-4-ynamide] belongs 10.
